In patent publication US12636316B2, “Pharmaceutical composition for preventing or treating myositis, comprising isolated mitochondria as active ingredient” (PAEAN BIOTECHNOLOGY INC., priority 2019, dated 2026) one finds membrane potential activity data, which are given here for one molecule.

A short description of the test: Membrane potential of mitochondria (JC-1 dye). It is filed as biochemical. As to conditions: 5 μg mitochondria mixed in 50 μL CCCP, room temperature 10 minutes, JC-1 2 μM. Here is the method:
In order to measure the membrane potential of the mitochondria isolated in Preparation Example 1, the mitochondrial protein concentration of the isolated mitochondria was quantified through the BCA to prepare 5 μg of mitochondria. The membrane potential of the mitochondria was measured using a JC-1 (molecular probes, cat no.1743159) dye.
Specifically, as an experimental group, 5 μg of the prepared mitochondria was mixed in 50 μL of PBS and then dispensed in a 96-well plate. In addition, as a control group, 50 μL of PBS without mitochondria was dispensed in a 96-well plate. In addition, as an additional experimental group, 5 μg of mitochondria was mixed in 50 μL of CCCP (R&D systems, CAS 555-60-2), then reacted at room temperature for 10 minutes, and then dispensed in a 96-well plate. In this case, CCCP is an ion transporter of mitochondria and depolarizes the membrane potential of mitochondria, thereby inhibiting the function of mitochondria.
Thereafter, each well was treated and reacted with the JC-1 dye so that the concentration was 2 μM, and then the absorbance was measured using a fluorescence microplate reader. […] The membrane potential of mitochondria was analyzed by calculating the ratio of […].

For `N#CC(C#N)=NNc1cccc(Cl)c1` [CCCP], the membrane potential activity entry is reported as “low membrane potential activity”.
